Data from PubChem BioAssay AID1996.
≈ marks a conversion by molar mass, not a printed value.

Details: buffer; pH 7.4; 200.0 µM
For `CN1C(=O)c2cccc3c(N(C)C)ccc(c23)C1=O`, the solubility kinetic was 5.9 µg/mL (≈ 23.2 µM). `Cc1nc2sc(C(N)=O)c(N)c2c(C)c1CC(=O)c1ccccc1` gave a solubility kinetic of 1.7 µg/mL (≈ 5.01 µM). With `Cc1ccc(S(=O)(=O)NC2CCCC2)cc1C(N)=O` the solubility kinetic was over 42.4 µg/mL. Work on `CCOc1ncccc1C(=O)OCC(=O)NC(=O)NC(C)C` yielded a solubility kinetic of 44.6 µg/mL (≈ 144 µM). `c1ccc(NC(c2ccccc2)c2ccncc2)cc1` (configuration not stated) showed a solubility kinetic of 25.5 µg/mL (≈ 97.9 µM). For `COc1ccc(-n2c(O)c(C=NCCN(C)C)c(=O)[nH]c2=O)cc1`, the solubility kinetic was over 49.9 µg/mL. For `Cc1c(C)c(C)c(S(=O)(=O)NCCc2ccccn2)c(C)c1C`, the solubility kinetic was 40.3 µg/mL (≈ 121 µM).
